In series [1] the test system is Rattus norvegicus. Nature of the series: Antiinflammatory activity in po dosed rat assessed as inhibition of carrageenan-induced paw edema. The series is classed as functional.
A short description of series [2]: Therapeutic index, ratio of ID50 for po dosed rat to ED50 for po dosed rat. The series is classed as organism-based. The following applies: in vivo, read-out: TI.
Series [3] deals with Rattus norvegicus. As to the kind of experiment: Ratio of indomethacin ED50 to compound ED50 for po dosed rat assessed as inhibition of carrageenan-induced paw edema. The series is classed as functional.
Series [4] in a line: Gastrointestinal toxicity in po dosed rat assessed as induction of gastric irritation. The series is classed as organism-based, Stomach. The following applies: in vivo, read-out: ID50 (the source's name).

This note sets out measurements from ChEMBL document CHEMBL3244058, “Dibenz[b,e]oxepinalkanoic acids as nonsteroidal antiinflammatory agents. 2. Dihydro-10-oxofuro-and -thieno[3,2-c][1]benzoxepin-8-acetic acids” (J Med Chem, 1977).

With `COc1ccc2c(c1)c(CC(=O)O)c(C)n2C(=O)c1ccc(Cl)cc1` [INDOMETHACIN], the ED50 with Rattus norvegicus [1] came out at 4.35 mg/kg. Also, the selectivity ratio in series [2] came out at 0.4.
For the compound `O=C(O)Cc1ccc2c(c1)C(=O)c1occc1CO2`, in the series on Rattus norvegicus [1], the 50% effective dose (ED50) was found to be 33.3 mg/kg.
For `O=C(O)Cc1ccc2c(c1)C(=O)c1ccccc1CO2` [ISOXEPAC], the ED50 in the series with Rattus norvegicus [1] came out at 6.36 mg/kg. The selectivity ratio in series [2] came to 13.
Regarding `O=C(O)Cc1ccc2c(c1)C(=O)c1sccc1CO2`, in the series with Rattus norvegicus [1], the ED50 is 3.37 mg/kg. In addition, the selectivity ratio in series [2] was 10. Besides, the “Ratio ED50” value in the series with Rattus norvegicus [3] is 1.3. For the same compound, in series [4], the TD50 came to 33.7 mg/kg.
